According to PMC6689897, “Drugging an undruggable pocket on KRAS” (Proceedings of the National Academy of Sciences of the …, 2019):

Molecular target: KRAS (Homo sapiens, UniProt P01116, G12D)
Experiment: Alpha Screen PPI assays, summary over KRAS interactions (SOS1, CRAF, PI3Kα)
Assay type: biochemical
Details: interaction not given
Source text: Using biochemical assays, we investigated whether 1 inhibited 3 of the 4 PPIs important for KRAS cycling (Fig. 5 A, i–iii). Namely, 1) GDP-KRAS interaction with the catalytic site of SOS ([33]), 2) GTP-KRAS interaction with the allosteric site of SOS ([34]), and 3) GTP-KRAS interaction with downstream effectors (CRAF and PI3Kα). We were unable to establish a biochemical assay for the fourth intervention point, namely, 4) GTP-KRAS interaction with its GAPs (Fig. 5 A, iv). As a reference compound for these assays, we used the KRAS^G12C-specific covalent inhibitor ARS-1620 ([35]). Compound 1 inhibited all 3 RAS cycle intervention points (1 to 3) in a dose-dependent manner (Fig. 5 B–E) in the range of 100 to 770 nM (SI Appendix, Table S6).
217 The coordinates and structure factors of the structures have been deposited at the
218 Protein Data Bank with the accession codes PDB Code 6GJ5, 6GJ6, 6GJ7, 6GJ8.
221 Measurements of various protein–protein interactions were performed using the Alpha
222 Screen technology developed by Perkin Elmer. Recombinant RAS proteins (H-, N-, K-
223 RAS variants; all KRAS variants are based on KRAS isoform 4B (uniprot id P01116-2);
224 KRAS (G12D) 1-169, N-terminal 6His-tag, C-terminal avi-tag was from Xtal
225 BioStructures, Inc., KRAS (G12C) 1-169, C-terminal avi-tag, biotinylated, mutations:
226 C51S, C80L, C118S, NRAS(wt) 1-172, C-terminal avi-tag, biotinylated; HRAS(wt) 1-
227 166, C-terminal avi-tag, biotinylated). Biotinylation was performed in vitro with
228 recombinant BirA biotin-protein ligase as recommended by the manufacturer (Avidity
229 LLC, Aurora, Colorado, USA). Interacting proteins such as SOS1 (564-1049, N-terminal
230 GST-tag, TEV cleavage site), cRaf (1-303, N-terminal GST-tag, TEV cleavage site) and
231 PI3KA- RBD (160-317, N-term-HIS_GST-tag) were expressed as glutathione S […]
245 for 60 min in the dark at room temperature. Single oxygen induced fluorescence was
246 measured at an Enspire multimode plate reader (Perkin Elmer) according to the
247 manufacturer’s recommendations. Data were analyzed using the GraphPad Prism data […]

Sequence of KRAS (P01116 1-169 G12D): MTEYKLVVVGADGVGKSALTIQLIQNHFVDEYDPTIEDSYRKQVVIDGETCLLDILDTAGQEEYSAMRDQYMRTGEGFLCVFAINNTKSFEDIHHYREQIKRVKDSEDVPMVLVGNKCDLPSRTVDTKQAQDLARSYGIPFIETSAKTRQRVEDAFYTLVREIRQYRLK

SMILES: Cn1cnc(Cn2ccc3ccc(CNCc4[nH]c5ccccc5c4[C@H]4NC(=O)c5ccc(O)cc54)cc32)c1 [Compound 1]
- IC50: 450 nM
